# In ChEMBL document CHEMBL3885881, “DrugMatrix”:
# Organism: Rattus norvegicus
# Experiment: DrugMatrix - Regimen: Daily Repeat
# Type: toxicity, organism-based, Sprague-Dawley
# Design: regimen Daily Repeat, gender Male, age 6-8 weeks
# Conditions: in vivo, po, route oral GAVAGE, […]; for URIC ACID / ALANINE AMINOTRANSFERASE / ALBUMIN / ALKALINE PHOSPHATASE / ASPARTATE AMINOTRANSFERASE / BLOOD UREA NITROGEN / CARBON DIOXIDE / CHLORIDE / CHOLESTEROL / CREATINE PHOSPHOKINASE / CREATININE / GLUCOSE / LACTATE DEHYDROGENASE / LIPASE / PHOSPHORUS / POTASSIUM / SODIUM / TOTAL BILIRUBIN / TOTAL PROTEIN: tissue Plasma; for ABSOLUTE BASOPHIL / ABSOLUTE EOSINOPHIL / ABSOLUTE LYMPHOCYTE / ABSOLUTE MONOCYTE / ABSOLUTE SEGMENTED NEUTROPHIL / BASOPHIL / EOSINOPHIL / ERYTHROCYTE COUNT / HEMATOCRIT / HEMOGLOBIN / LEUKOCYTE COUNT / LYMPHOCYTE / MEAN CORPUSCULAR HEMOGLOBIN / MEAN CORPUSCULAR HEMOGLOBIN CONCENTRATION / MONOCYTE / NEUTROPHIL / NUCLEATED RED BLOOD CELLS / PLATELET COUNT: tissue Blood
# [1] = 0.2 mg/kg, 120 h, dose level Low, time 5 day
# [2] = 19 mg/kg, 72 h, dose level High, time 3 day
# [3] = 19 mg/kg, 120 h, dose level High, time 5 day
structure (smiles),measurement,setting,value
CCOC(=O)C1=C(COCCN)NC(C)=C(C(=O)OC)C1c1ccccc1Cl (stereo unspecified) [AMLODIPINE],URIC ACID,"0.2 mg/kg, 72 h, dose level Low, time 3 day",1.4 mg/dL
same,ABSOLUTE BASOPHIL,[1],0 CELLS/uL
same,ABSOLUTE EOSINOPHIL,[1],54 CELLS/uL
same,ABSOLUTE LYMPHOCYTE,[1],12693.33 CELLS/uL
same,ABSOLUTE MONOCYTE,[1],54 CELLS/uL
same,ABSOLUTE SEGMENTED NEUTROPHIL,[1],1132 CELLS/uL
same,BASOPHIL,[1],0%
same,EOSINOPHIL,[1],0.33%
same,ERYTHROCYTE COUNT,[1],5.55 x10E6/uL
same,HEMATOCRIT,[1],34.53%
same,HEMOGLOBIN,[1],13.3 G/DL
same,LEUKOCYTE COUNT,[1],13.93 x10E3/uL
same,LYMPHOCYTE,[1],91.33%
same,MEAN CORPUSCULAR HEMOGLOBIN,[1],23.97 pg
same,MEAN CORPUSCULAR HEMOGLOBIN CONCENTRATION,[1],38.5 G/DL
same,MONOCYTE,[1],0.33%
same,NEUTROPHIL,[1],8%
same,NUCLEATED RED BLOOD CELLS,[1],0.33 /100WBC
same,PLATELET COUNT,[1],1051.33 x10E3/uL
same,ALANINE AMINOTRANSFERASE,[1],66 u/L
same,ALBUMIN,[1],4.1 G/DL
same,ALKALINE PHOSPHATASE,[1],350 u/L
same,ASPARTATE AMINOTRANSFERASE,[1],82 u/L
same,BLOOD UREA NITROGEN,[1],16 mg/dL
same,CARBON DIOXIDE,[1],30.33 mmol/L
same,CHLORIDE,[1],99.33 MEQ/L
same,CHOLESTEROL,[1],64.33 mg/dL
same,CREATINE PHOSPHOKINASE,[1],209.67 u/L
same,CREATININE,[1],0.14 mg/dL
same,GLUCOSE,[1],156.33 mg/dL
same,LACTATE DEHYDROGENASE,[1],144.67 u/L
same,LIPASE,[1],19.33 u/L
same,PHOSPHORUS,[1],10.4 mg/dL
same,POTASSIUM,[1],5.81 MEQ/L
same,SODIUM,[1],144.97 MEQ/L
same,TOTAL BILIRUBIN,[1],0.1 mg/dL
same,TOTAL PROTEIN,[1],5.67 G/DL
same,URIC ACID,[1],0.87 mg/dL
same,ABSOLUTE BASOPHIL,[2],0 CELLS/uL
same,ABSOLUTE EOSINOPHIL,[2],0 CELLS/uL
same,ABSOLUTE LYMPHOCYTE,[2],15467 CELLS/uL
same,ABSOLUTE MONOCYTE,[2],0 CELLS/uL
same,ABSOLUTE SEGMENTED NEUTROPHIL,[2],1533 CELLS/uL
same,BASOPHIL,[2],0%
same,EOSINOPHIL,[2],0%
same,ERYTHROCYTE COUNT,[2],5.69 x10E6/uL
same,HEMATOCRIT,[2],35.43%
same,HEMOGLOBIN,[2],13.97 G/DL
same,LEUKOCYTE COUNT,[2],17 x10E3/uL
same,LYMPHOCYTE,[2],90.67%
same,MEAN CORPUSCULAR HEMOGLOBIN,[2],24.53 pg
same,MEAN CORPUSCULAR HEMOGLOBIN CONCENTRATION,[2],39.4 G/DL
same,MONOCYTE,[2],0%
same,NEUTROPHIL,[2],9.33%
same,NUCLEATED RED BLOOD CELLS,[2],0 /100WBC
same,PLATELET COUNT,[2],1141 x10E3/uL
same,ALANINE AMINOTRANSFERASE,[2],69.67 u/L
same,ALBUMIN,[2],3.77 G/DL
same,ALKALINE PHOSPHATASE,[2],410 u/L
same,ASPARTATE AMINOTRANSFERASE,[2],81.67 u/L
same,BLOOD UREA NITROGEN,[2],14 mg/dL
same,CARBON DIOXIDE,[2],29.67 mmol/L
same,CHLORIDE,[2],101.67 MEQ/L
same,CHOLESTEROL,[2],68 mg/dL
same,CREATINE PHOSPHOKINASE,[2],240.33 u/L
same,CREATININE,[2],0.16 mg/dL
same,GLUCOSE,[2],161 mg/dL
same,LACTATE DEHYDROGENASE,[2],103.33 u/L
same,LIPASE,[2],10 u/L
same,PHOSPHORUS,[2],10.33 mg/dL
same,SODIUM,[2],141.27 MEQ/L
same,TOTAL BILIRUBIN,[2],0.23 mg/dL
same,TOTAL PROTEIN,[2],5.6 G/DL
same,URIC ACID,[2],1.43 mg/dL
same,ABSOLUTE BASOPHIL,[3],0 CELLS/uL
same,ABSOLUTE EOSINOPHIL,[3],0 CELLS/uL
same,ABSOLUTE LYMPHOCYTE,[3],11777 CELLS/uL
same,ABSOLUTE MONOCYTE,[3],51 CELLS/uL
same,ABSOLUTE SEGMENTED NEUTROPHIL,[3],838.67 CELLS/uL
same,BASOPHIL,[3],0%
same,EOSINOPHIL,[3],0%
same,ERYTHROCYTE COUNT,[3],5.63 x10E6/uL
same,HEMATOCRIT,[3],34.73%
same,HEMOGLOBIN,[3],13.7 G/DL
same,LEUKOCYTE COUNT,[3],12.67 x10E3/uL
same,LYMPHOCYTE,[3],92.67%
same,MEAN CORPUSCULAR HEMOGLOBIN,[3],24.33 pg
same,MEAN CORPUSCULAR HEMOGLOBIN CONCENTRATION,[3],39.47 G/DL
same,MONOCYTE,[3],0.33%
same,NEUTROPHIL,[3],7%
same,NUCLEATED RED BLOOD CELLS,[3],0 /100WBC
same,PLATELET COUNT,[3],1057.67 x10E3/uL
same,ALANINE AMINOTRANSFERASE,[3],95 u/L
same,ALBUMIN,[3],4 G/DL
same,ALKALINE PHOSPHATASE,[3],359.33 u/L
same,ASPARTATE AMINOTRANSFERASE,[3],100 u/L
same,BLOOD UREA NITROGEN,[3],16 mg/dL
same,CARBON DIOXIDE,[3],34.67 mmol/L
same,CHLORIDE,[3],101.5 MEQ/L
same,CHOLESTEROL,[3],68.33 mg/dL
same,CREATINE PHOSPHOKINASE,[3],177.67 u/L
same,CREATININE,[3],0.13 mg/dL
same,GLUCOSE,[3],165 mg/dL
same,LACTATE DEHYDROGENASE,[3],96.67 u/L
same,LIPASE,[3],12 u/L
same,PHOSPHORUS,[3],8.93 mg/dL
same,POTASSIUM,[3],5.34 MEQ/L
same,SODIUM,[3],145.05 MEQ/L
same,TOTAL BILIRUBIN,[3],0.1 mg/dL
same,TOTAL PROTEIN,[3],5.9 G/DL
same,URIC ACID,[3],0.37 mg/dL
